A value given as a limit tells only on which side of the number the result lay.

The values below come from ChEMBL document CHEMBL1132949, “Conceptually new 20-epi-22-oxa sulfone analogues of the hormone 1alpha,25-dihydroxyvitamin D(3): synthesis and biological evaluation” (2000).

Experiment [1] in a line: In vitro vitamin D receptor (VDR)-mediated transcriptional potency in rat osteosarcoma ROS 17/2.8 cells. The conditions noted are these: read-out: ED50 (the source's name). The experiment is classed as functional.
For experiment [2], the target named is T1, Vitamin D3 receptor (Homo sapiens) (UniProt P11473).
T1 sequence (whole entry): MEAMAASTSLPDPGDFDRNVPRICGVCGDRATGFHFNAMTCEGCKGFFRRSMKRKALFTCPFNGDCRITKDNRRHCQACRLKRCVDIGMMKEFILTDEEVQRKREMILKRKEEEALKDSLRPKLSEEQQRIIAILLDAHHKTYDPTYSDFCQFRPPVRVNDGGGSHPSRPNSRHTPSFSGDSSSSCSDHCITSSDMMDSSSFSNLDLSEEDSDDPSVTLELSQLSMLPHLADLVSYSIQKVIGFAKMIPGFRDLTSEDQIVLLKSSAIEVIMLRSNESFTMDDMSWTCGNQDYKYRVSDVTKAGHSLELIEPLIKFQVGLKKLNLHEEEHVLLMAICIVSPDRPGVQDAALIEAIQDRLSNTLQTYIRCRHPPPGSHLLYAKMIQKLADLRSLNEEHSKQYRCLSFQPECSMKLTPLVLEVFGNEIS
The experiment is described as follows: Binding affinity to Vitamin D3 receptor relative to 1,25D3.

The next experiment has as its system MCF7. Description: In vitro activity on human breast adenocarcinoma cell line MCF-7 proliferation. It is filed as functional. The conditions noted are these: read-out: ED50 (the source's name).
A further experiment concerns PBMC. The experiment is described as follows: In vitro inhibition of phytohemagglutininin-induced stimulation of human peripheral blood mononuclear cells proliferation. The conditions noted are these: read-out: ED50 (the source's name). The experiment is classed as functional.

As for `C=C1/C(=C\C=C2/CCC[C@]3(C)[C@@H]([C@@H](C)OCCCS(=O)(=O)C(C)(C)C)CC[C@@H]23)C[C@@H](O)C[C@@H]1O`, the EC50 in experiment [1] is greater than 100 nM. Moreover, the Binding affinity in experiment [2] came to 0.4%.

As to `C=C1/C(=C\C=C2/CCC[C@]3(C)[C@@H]([C@@H](C)OCCCS(=O)(=O)C(C)(C)C)CC[C@@H]23)C[C@H](O)C[C@H]1O`, the values for the EC50 (with MCF7; in the experiment with PBMC; in experiment [1]) were 9.6 nM, 8.4 nM and 1.6 nM, respectively. In addition, the Binding affinity in experiment [2] is 26%.

As to `C=C1/C(=C\C=C2/CCC[C@]3(C)[C@@H]([C@@H](C)OCCCC(O)(CC)CC)CC[C@@H]23)C[C@@H](O)C[C@@H]1O` [LEXACALCITOL], the EC50 in the experiment with MCF7 stood at 0.27 nM.
